The source made the active and inactive calls. No cut-off for these calls is given here.
Key:
CCRF-CEM [1] = experiment: Induction of apoptosis in human CCRF-CEM cells assessed as late apoptotic cells at 4 uM incubated for 48 hrs by Annexin V-FITC/PI staining based flow cytometry (reference value: 3.2 %); assay type: functional
CCRF-CEM [2] = experiment: Induction of apoptosis in human CCRF-CEM cells assessed downregulation of Bcl-2 expression at 0.25 to 0.5 uM incubated for 48 hrs by Western blot analysis; assay type: functional, cell-based; conditions: dose 0.25-0.5 µM
CCRF-CEM [3] = experiment: Downregulation of ROS level in human CCRF-CEM cells assessed as increase in GPx activity at 0.125 to 2 uM incubated for 12 hrs in presence of NADPH by […]; assay type: functional, cell-based; conditions: dose 0.125-2 µM
CCRF-CEM [4] = experiment: Induction of cell cycle arrest in human CCRF-CEM cells assessed as cell accumulation at G2/M phase at 2 uM incubated for 24 hrs by PI staining based flow cytometry analysis (reference value: 61.3 %); assay type: functional
CCRF-CEM [5] = experiment: Induction of cell cycle arrest in human CCRF-CEM cells assessed as cell accumulation at G1 phase at 2 uM incubated for 24 hrs by PI staining based flow cytometry analysis (reference value: 24.1 %); assay type: functional
CCRF-CEM [6] = experiment: Induction of apoptosis in human CCRF-CEM cells assessed as viable cells at 0.25 uM incubated for 48 hrs by Annexin V-FITC/PI staining based flow cytometry (reference value: 83.4 %); assay type: functional; conditions: read-out: Activity
CCRF-CEM [7] = experiment: Induction of cell cycle arrest in human CCRF-CEM cells assessed as cell accumulation at S phase at 0.25 uM incubated for 24 hrs by PI staining based flow cytometry analysis (reference value: 15.5 %); assay type: functional
CCRF-CEM [8] = experiment: Downregulation of ROS level in human CCRF-CEM cells at 0.125 to 2 uM incubated for 12 hrs by DCFH-DA probe based flow cytometry analysis; assay type: functional, cell-based; conditions: dose 0.125-2 µM
CCRF-CEM [9] = experiment: Induction of cell cycle arrest in human CCRF-CEM cells assessed as cell accumulation at G2/M phase at 1 uM incubated for 24 hrs by PI staining based flow cytometry analysis (reference value: 61.3 %); assay type: functional
CCRF-CEM [10] = experiment: Induction of apoptosis in human CCRF-CEM cells assessed as early apoptotic cells at 0.25 uM incubated for 48 hrs by Annexin V-FITC/PI staining based flow cytometry (reference value: 13.4 %); assay type: functional
K562 = experiment: Antiproliferative activity against human K562 cells assessed as cell growth inhibition incubated for 72 hrs by MTT assay; assay type: functional, cell-based; conditions: K562, 72 h
CCRF-CEM [11] = experiment: Induction of apoptosis in human CCRF-CEM cells assessed as late apoptotic cells at 0.5 uM incubated for 48 hrs by Annexin V-FITC/PI staining based flow cytometry (reference value: 3.2 %); assay type: functional
CCRF-CEM [12] = experiment: Induction of apoptosis in human CCRF-CEM cells assessed as late apoptotic cells at 0.25 uM incubated for 48 hrs by Annexin V-FITC/PI staining based flow cytometry (reference value: 3.2 %); assay type: functional
CCRF-CEM [13] = experiment: Induction of DNA damage in human CCRF-CEM cells assessed as increase in gammaH2AX phosphorylation at 1 to 4 uM incubated for 24 hrs by DAPI staining based immunofluorescence microscopic analysis; assay type: functional, cell-based; conditions: dose 1-4 µM
CCRF-CEM [14] = experiment: Downregulation of ROS level in human CCRF-CEM cells assessed as effect on H2O2 level at 0.125 to 0.5 uM incubated for 12 hrs in presence of NADPH by DCFH-DA probe based flow cytometry analysis; assay type: functional, cell-based; conditions: dose 0.125-0.5 µM
CCRF-CEM [15] = experiment: Downregulation of ROS level in human CCRF-CEM cells assessed as H2O2 level at 1 uM incubated for 12 hrs in presence of NADPH by absorbance based assay; assay type: functional, cell-based
CCRF-CEM [16] = experiment: Induction of apoptosis in human CCRF-CEM cells assessed as early apoptotic cells at 0.5 uM incubated for 48 hrs by Annexin V-FITC/PI staining based flow cytometry (reference value: 13.4 %); assay type: functional
CCRF-CEM [17] = experiment: Induction of cell cycle arrest in human CCRF-CEM cells assessed as cell accumulation at S phase at 1 uM incubated for 24 hrs by PI staining based flow cytometry analysis (reference value: 15.5 %); assay type: functional
CCRF-CEM [18] = experiment: Induction of cell cycle arrest in human CCRF-CEM cells assessed as cell accumulation at S phase at 0.5 uM incubated for 24 hrs by PI staining based flow cytometry analysis (reference value: 15.5 %); assay type: functional
CCRF-CEM [19] = experiment: Antiproliferative activity against human CCRF-CEM cells assessed as cell growth inhibition at 0.1875 to 20 uM by CCK8 assay; assay type: functional, cell-based; conditions: dose 0.1875-20 µM, time 24-48 hrs, TDE = time-dependent effect
CCRF-CEM [20] = experiment: Induction of apoptosis in human CCRF-CEM cells assessed as nuclear condensation upto 4 uM incubated for 48 hrs by Hoechst staining based fluorescent microscopic analysis; assay type: functional, cell-based
CCRF-CEM [21] = experiment: Induction of cell cycle arrest in human CCRF-CEM cells assessed as cell accumulation at G2/M phase at 0.25 uM incubated for 24 hrs by PI staining based flow cytometry analysis (reference value: 61.3 %); assay type: functional
CCRF-CEM [22] = experiment: Downregulation of ROS level in human CCRF-CEM cells assessed as effect on CAT level at 0.125 to 0.5 uM incubated for 12 hrs in presence of NADPH by DCFH-DA probe based flow cytometry analysis; assay type: functional, cell-based; conditions: dose 0.125-0.5 µM
CCRF-CEM [23] = experiment: Induction of apoptosis in human CCRF-CEM cells assessed as early apoptotic cells at 2 uM incubated for 48 hrs by Annexin V-FITC/PI staining based flow cytometry (reference value: 13.4 %); assay type: functional
CCRF-CEM [24] = experiment: Antiproliferative activity against human CCRF-CEM cells assessed as cell growth inhibition incubated for 24 to 72 hrs by CCK8 assay; assay type: functional, cell-based; conditions: dose 0.1875-20 µM, time 24-72 hrs
[25] = Selectivity index, ratio of IC50 for human L02 cells to IC50 for human CCRF-CEM cells; assay type: toxicity; conditions: L02 cells and CCRF-CEM cells, read-out: Selectivity Index
CCRF-CEM [26] = experiment: Induction of apoptosis in human CCRF-CEM cells assessed as viable cells at 1 uM incubated for 48 hrs by Annexin V-FITC/PI staining based flow cytometry (reference value: 83.4 %); assay type: functional; conditions: read-out: Activity
CCRF-CEM [27] = experiment: Induction of apoptosis in human CCRF-CEM cells assessed as late apoptotic cells at 1 uM incubated for 48 hrs by Annexin V-FITC/PI staining based flow cytometry (reference value: 3.2 %); assay type: functional
CCRF-CEM [28] = experiment: Induction of cell cycle arrest in human CCRF-CEM cells assessed as cell accumulation at S phase at 2 uM incubated for 24 hrs by PI staining based flow cytometry analysis (reference value: 15.5 %); assay type: functional
HL-60 = experiment: Antiproliferative activity against human HL-60 cells assessed as cell growth inhibition incubated for 72 hrs by MTT assay; assay type: functional, cell-based; conditions: HL-60, 72 h
CCRF-CEM [29] = experiment: Induction of cell cycle arrest in human CCRF-CEM cells assessed as cell accumulation at G1 phase at 1 uM incubated for 24 hrs by PI staining based flow cytometry analysis (reference value: 24.1 %); assay type: functional
CCRF-CEM [30] = experiment: Induction of apoptosis in human CCRF-CEM cells assessed as necrotic cells at 4 uM incubated for 48 hrs by Annexin V-FITC/PI staining based flow cytometry (reference value: 0.0 %); assay type: functional
SH-SY5Y = experiment: Antiproliferative activity against human SH-SY5Y cells assessed as cell growth inhibition incubated for 72 hrs by MTT assay; assay type: functional, cell-based

## C[C@@H]1CC[C@H]2[C@@H](C)C(OC(=O)c3ccc(N(CCCl)CCCl)cc3)O[C@@H]3O[C@@]4(C)CC[C@@H]1[C@]32OO4 (stereo partly drawn)
CCRF-CEM [1]
  Activity: 14.8%
CCRF-CEM [2]
  Activity: Active
CCRF-CEM [3]
  Activity: Active
CCRF-CEM [4]
  Activity: 67.1%
CCRF-CEM [5]
  Activity: 26.9%
CCRF-CEM [6]
  viability at 0.25 µM: 67.7%
CCRF-CEM [7]
  Activity: 7.9%
CCRF-CEM [8]
  Activity: Dose-Dependent Effect
CCRF-CEM [9]
  Activity: 47.6%
CCRF-CEM [10]
  Activity: 20.5%
K562
  IC50: 22 µM
CCRF-CEM [11]
  Activity: 6.9%
CCRF-CEM [12]
  Activity: 11.7%
CCRF-CEM [13]
  Activity: Active
CCRF-CEM [14]
  Activity: Active
CCRF-CEM [15]
  Activity: inactive
CCRF-CEM [16]
  Activity: 78.6%
CCRF-CEM [17]
  Activity: 35.1%
CCRF-CEM [18]
  Activity: 6.8%
CCRF-CEM [19]
  Activity: Tde
CCRF-CEM [20]
  Activity: Active
CCRF-CEM [21]
  Activity: 65.9%
CCRF-CEM [22]
  Activity: Active
CCRF-CEM [23]
  Activity: 33.4%
CCRF-CEM [24]
  Activity: Dose-Dependent Effect
[25]
  selectivity ratio: 44.7
CCRF-CEM [26]
  viability at 1 µM: 60.4%
CCRF-CEM [27]
  Activity: 12.8%
CCRF-CEM [28]
  Activity: 6.5%
HL-60
  IC50: 2.32 µM
CCRF-CEM [29]
  Activity: 18.2%
CCRF-CEM [30]
  Activity: 0.1%
SH-SY5Y
  IC50: > 40 µM
